Measured values from patent publication US20190192524A1, “Modulators of Caspase-6” (The University of British Columbia, priority 2014, published 2019).

Columns and labels:
[1] = target: T1, full-length human caspase-6 (Homo sapiens, UniProt P55212); experiment: Western blot of Htt fragments in COS-7 cells co-transfected with Htt 1-1212AA and full-length caspase-6; assay type: cell-based; settings: 10 uM compound, 24 hr, vs DMSO
T1 construct: DDK-tag (C); expressed in transfected cells; host or cells: COS-7
T1 sequence (P55212 with tags, fused parts or gaps): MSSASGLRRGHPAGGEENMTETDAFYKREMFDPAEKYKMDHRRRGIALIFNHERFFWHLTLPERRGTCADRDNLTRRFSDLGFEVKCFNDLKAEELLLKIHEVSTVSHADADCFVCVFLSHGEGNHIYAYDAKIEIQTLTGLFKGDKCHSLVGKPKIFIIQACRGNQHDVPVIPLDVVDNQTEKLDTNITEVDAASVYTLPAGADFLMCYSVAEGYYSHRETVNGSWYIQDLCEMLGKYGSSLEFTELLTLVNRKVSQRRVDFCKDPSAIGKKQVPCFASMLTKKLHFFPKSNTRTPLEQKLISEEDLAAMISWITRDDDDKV
Description: COS-7 cells were co-transfected with the 1212 amino acid HTT fragment (SEQ ID NO: 3) and the full length human caspase-6 enzyme (SEQ ID NO:4). The co-transfected cells were exposed to either 10 uM of the PG3d compound, 3 uM of the Q-VD-Oph pan-caspase inhibitor or were treated with DMSO as a control. An aliquot of the cell lysates were subjected to Western blotting to detect HTT fragments with the Htt antibody 2166 (Millipore) and the presence of caspase-6 was detected using the HD91 antibody (Ehrnhoefer et al, HMG, 2014. 23(3):717-29). The remaining cell lysates (500 ug protein) were immunoprecipitated with 5 ug of Caspase-6 antibody for 16 hrs at 4 C. The immunoprecipitated proteins were then applied to acrylamide gels and immunoblotted to detect either the HTT fragments or the presence of the active caspase 6 enzyme using the antibodies described above.
Cos-7 cells were co-transfected with Htt 1-1212AA (SEQ ID NO:3) and full-length human caspase-6 (SEQ ID NO:6), and exposed to either the pan-caspase inhibitor Q-VD-OPh, the PG3d compound or DMSO as a negative control. As shown in the upper panel of FIG. 9A, control cells that received DMSO alone (lanes labelled n.t.) show the presence of the Htt 1212AA protein and the Htt proteolytic cleavage fragments including the 586, 552 and 513 amino acid fragments. […]

[2] = target: T2, human caspase 6 lacking the pro-domain (Homo sapiens, UniProt P55212); experiment: Lamin A cleavage in HEK 293 cells overexpressing caspase-6 (Mesoscale ELISA); assay type: cell-based; design: The transfected DNA encodes amino acids 24-293 of the human caspase 6 enzyme with a C-terminal DDK tag; DDK-tag (C); expressed in transfected cells; host or cells: HEK 293; settings: 24 hr incubation; cleaved lamin A quantified; read-out: HEK intracellular IC50
T2 sequence (P55212 with tags, fused parts or gaps): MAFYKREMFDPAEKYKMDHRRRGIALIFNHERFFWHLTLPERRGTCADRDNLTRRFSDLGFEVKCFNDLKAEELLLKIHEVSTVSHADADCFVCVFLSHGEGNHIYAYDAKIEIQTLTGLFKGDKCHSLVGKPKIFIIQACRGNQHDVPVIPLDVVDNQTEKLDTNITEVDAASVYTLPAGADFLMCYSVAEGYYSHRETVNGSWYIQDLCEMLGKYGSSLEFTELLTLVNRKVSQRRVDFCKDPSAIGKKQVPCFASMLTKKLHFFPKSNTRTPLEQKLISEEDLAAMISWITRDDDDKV
Description: HEK 293 cells were grown in DMEM supplemented with 10% fetal bovine serum, 1%/penicillin/streptomycin and 0.5% glutamine. Transfections were performed using the Fugene reagent (Roche) according to manufacturer's instructions. The transfected DNA encodes amino acids 24-293 of the human caspase 6 enzyme with a C-terminal DDK tag under the control of a CMV promoter (vector pCMVSport6) (SEQ ID NO: 2). The transfected HEK 293 were used to measure the intracellular activity of caspase-6 as evidenced by cleavage of the lamin substrate (described below).
The quantitative assessment of intracellular lamin cleavage in caspase-6 transfected HEK 293 cells was done as described previously (Ehrnhoefer et al. PLoS One, 2011. 6(11):e27680) Briefly, HEK 293 cell lysates were adjusted to 1 μg protein/μl in lysis buffer, diluted to 0.2 μg/μl in PBS and 5 μl were added to a Multi-Array high-bind 96 well plate (Mesoscale discovery). After incubation at room temperature for 1 h, the wells were blocked by adding 150 μl 5% BSA in PBS, followed by further incubation at room temperature for 1 h. Wells were then washed 3× with 150 μl PBS+0.05% Tween, and 25 μl antibody mix was added (Cell signaling #2036 at 1:100 dilution, Mesoscale discovery goat-anti-rabbit sulfo-tag at 1:500 dilution in PBS with 1% BSA). After lh incubation at room temperature, the wells were washed 3× with 150 μl PBS+0.05% Tween, and 150 μl/well 2× reading reagent (Mesoscale discovery) was added. The plate was read on a Sector imager 6000 (Mesoscale discovery).
The PG3 analog compounds were also tested for their ability to inhibit caspase-6 within cultured cells. HEK 293 cells were transfected with human caspase 6 lacking the pro-domain and were incubated with increasing concentrations of the PG3 analogs. After a 24 hr incubation, the excess compound was washed away, the cells were lysed and the amount of cleaved lamin A protein was quantified by the Mesoscale ELISA method.

O=c1oc(C#Cc2ccccc2)nc(O)c1Cc1ccccc1 [PG-3d, 5-Benzyl-4-hydroxy-2-(phenylethynyl)-6H-1,3-oxazin-6-one]
level of the 586AA Htt fragment [1]: reduction | melting point: 179 to 181 °C | IC50 [2]: 2600 nM
